In patent US20080234304A1, “N3-Pyridyl-Thiamine And Its Use In Cancer Treatments” (AVEO PHARMACEUTICALS, INC., priority 2004, published 2008):
“Also recorded” adds a separate entry of the source. Like-named read-outs stand apart in the source and are kept apart here.

Experiments:
[1] = overall animal weight and major organ weight of treated mice; type: in vivo, mouse; conditions: 200 mg/kg/day
Protocol: A mouse xenograft model was used to evaluate the efficacy of N3PT in modulating tumor growth. Cancer cells (HCT-116 Luc+, comprising a stably transfected luciferase gene) were injected subcutaneously (10^6 cells) into Balb C nude mice on both flanks on day 7 prior to treatment. Tumors were allowed to grow to palpable size from test day 0, defined as the start of a treatment regime. N3PT was injected ip (intraperitoneally) at a given regimen (e.g., 200 mg/kg/day) and tumor size monitored by luminance intensity from day 0-7, caliper measurement after day 7, and by weight at the end of study, after the animals were sacrificed. See, e.g., Wang and El-Deiry, Cancer Biol Ther. 2(2):196-202 (2003); Ray et al., Cancer Res. 63(6):1160-5 (2003); see also, e.g., U.S. Pat. Nos. 6,416,960; 6,596,257; and 6,217,847.

transketolase = molecular target: T1, transketolase (Homo sapiens, UniProt P29401); test: transketolase activity in cell based assay (lysates of N3PT-treated cells, GAPDH-coupled NADH readout)
T1 construct: Cells were lysed by vortexing and cell extracts assayed for transketolase activity; endogenous in cells; other cell lines not specified
T1 sequence (P29401 1-623): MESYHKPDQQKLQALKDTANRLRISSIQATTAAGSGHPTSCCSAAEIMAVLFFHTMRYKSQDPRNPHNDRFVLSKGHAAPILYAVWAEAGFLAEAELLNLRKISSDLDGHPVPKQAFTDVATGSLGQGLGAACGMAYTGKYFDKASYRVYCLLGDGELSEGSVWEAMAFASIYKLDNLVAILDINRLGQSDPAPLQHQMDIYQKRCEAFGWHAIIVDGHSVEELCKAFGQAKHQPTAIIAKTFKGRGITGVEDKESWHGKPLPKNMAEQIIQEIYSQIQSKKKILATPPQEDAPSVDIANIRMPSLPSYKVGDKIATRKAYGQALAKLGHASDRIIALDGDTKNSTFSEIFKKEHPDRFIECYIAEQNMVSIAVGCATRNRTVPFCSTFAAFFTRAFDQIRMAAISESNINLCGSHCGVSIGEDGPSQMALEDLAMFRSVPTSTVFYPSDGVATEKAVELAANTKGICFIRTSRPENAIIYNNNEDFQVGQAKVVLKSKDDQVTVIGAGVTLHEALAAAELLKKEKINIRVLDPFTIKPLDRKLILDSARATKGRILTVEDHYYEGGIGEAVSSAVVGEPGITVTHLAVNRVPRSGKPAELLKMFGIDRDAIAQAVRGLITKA
Protocol: Human carcinoma cell lines, such as, but not restricted to, HCT116, HT1080, DLD-1, Rv22, MIA PA CA-2, HCT-15, and murine cell lines, CT26, 4T1 (all cell lines described are available from the ATCC), were cultured in standard conditions (37 C, 5% CO2) in DMEM media (10% FBS, 1% Penicillin-Streptomycin) and harvested at 60-80% confluency by trypsinization. Approximately 2 million cells were collected in an Eppendorf tube and washed 2 times (2×) with PBS by centrifugation and stored at −20° C. as cell pellets. Ice-cold lysis buffer (1 ml) (20 mM HEPES, pH 7.5, 1 mM EDTA, 0.2 g/l Triton X-100 and 0.2 g/L sodium deoxycholate, supplemented with 1 mM DTT and 1 mM PMSF just before use) was added to each cell pellet. Cells were lysed by vortexing and cell extracts assayed for transketolase activity at pH 7.5, by coupling a subsequent glyceraldehyde-3-phosphate dehydrogenase (GAPDH) reaction and measuring conversion of NAD to NADH (FIG. 1).
The assay was carried out as follows. […] of […] assay buffer containing final concentrations of 50 mM HEPES, 40 mM KCl, 2.5 mM MgCl2, 5 mM NaArsenate, 1 mM NAD, 2 unit/ml glyceraldehydes-3-phosphate dehydrogenase (GAPDH) was added to 80 μl of lysate. Reaction kinetics were monitored on a fluorescent plate reader to allow any possible background activity via GAPDH to burn out. Then 5 ul of substrate mix containing final concentrations of 0.5 mM ribose-5-phosphate and 0.5 mM xylulose-5-phosphate was added to initiate the reaction. The reaction kinetics were monitored using a fluorescent plate reader, and the slope of the initial linear range was recorded as the velocity of the reaction (FU/min).
TK, kGDH and PDH enzymes all utilize thiamine pyrophosphate (TPP) as a co-factor for their catalysis. Conventional cell culture media (e.g., DMEM, RPMI) have high levels of thiamine (12 μM and 3 μM, respectively). […]
Log-phase growing cells were trypsinized and resuspended in TDM. […] TK activities could be measured from ≧5000 cells in most cell lines tested. […]
Enzymatic inhibition was expressed as percent of control cells that were not treated with compounds. […]

[2] = molecular target: T2, glucose-6-phosphate dehydrogenase (G6PDH) (Mus musculus, UniProt Q00612); test: G6PDH activity in blood and tissues of N3PT-treated mice; type: in vivo
T2 construct: (G6PDH) in blood, spleen and brain after a single dose of N3PT in mice; from tissue; host or cells: blood, spleen and brain of Balb C nude mice
T2 sequence (Q00612 whole entry): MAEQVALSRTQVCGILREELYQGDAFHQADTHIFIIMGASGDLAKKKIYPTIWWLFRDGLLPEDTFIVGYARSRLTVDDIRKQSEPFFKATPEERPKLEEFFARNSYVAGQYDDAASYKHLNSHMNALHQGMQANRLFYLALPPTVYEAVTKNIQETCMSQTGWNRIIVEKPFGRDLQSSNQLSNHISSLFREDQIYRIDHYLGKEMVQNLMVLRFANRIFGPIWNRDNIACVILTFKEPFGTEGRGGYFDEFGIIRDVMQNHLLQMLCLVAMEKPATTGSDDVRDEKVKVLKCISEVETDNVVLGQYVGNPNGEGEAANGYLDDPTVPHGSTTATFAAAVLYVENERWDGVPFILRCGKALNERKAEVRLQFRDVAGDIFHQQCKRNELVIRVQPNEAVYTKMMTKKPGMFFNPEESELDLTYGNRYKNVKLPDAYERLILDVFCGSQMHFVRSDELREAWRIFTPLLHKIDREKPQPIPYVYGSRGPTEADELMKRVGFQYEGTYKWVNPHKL

IC50 (transketolase; extracts from cells incubated with increasing concentrations of N3PT, read-out: IC50 transketolase (selectivity comparison, FIG. 9)): 7 nM | IC50 (transketolase; production of glyceraldehyde-3-phosphate by transketolase, read-out: IC50 transketolase in cell assays): 27 nM | G6PDH activity after repeated treatment ([2]; 200 mg/kg/day, % of vehicle average): no effect on G6PDH activity
Compound: Cc1ccc(C[n+]2csc(CCO)c2C)c(N)n1 [N3PT, 3-[(2-amino-6-methyl-3-pyridinyl)methyl]-5-(2-hydroxyethyl)-4-methyl thiazolium]
overall animal weight ([1]; day 0, 6 and 11): no effect on overall animal weight; also recorded: did not affect | major organ weight (brain, heart, kidney, liver, lung, spleen) ([1]; day 11 post treatment): no effect on major organ weight; also recorded: did not affect | duration of inhibition of cellular transketolase activity (transketolase; cells treated two days, washed out, TK monitored days 3-7): long lasting; also recorded: persists for several days | G6PDH activity after single dose ([2]; single dose 100 mg/kg i.p., blood, spleen, brain, 0-120 hr, 100 mg/kg): no effect on G6PDH in vivo; also recorded: little or no effect
